Results on 19 compounds are retold here after PubChem BioAssay (NCI).

Some test systems named below: IGROV1 ovarian; T-47D breast; HS 578T breast; NCI-H23 lung; M14 melanoma; MDA-MB-435.
What all share (assay): NCI anticancer screen, dose series, 48 h

Structures are written as SMILES.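 Interpolation was linear, between the two tested concentrations surrounding the appropriate level; five concentrations were tested over 48 hours in 96-well plates. At the GI50, growth is halved. Definition used: TGI = concentration required for complete inhibition of growth.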

On to `O=C(/C=C/C=C/c1c(C2CC2)nc2ccccc2c1-c1ccc(F)cc1)c1cccs1`, for which the GI50 is 1.59 µM in the assay on IGROV1 ovarian, 0.718 µM with T-47D breast, 3.68 µM in the assay on HS 578T breast and 2.35 µM in the assay on NCI-H23 lung. In addition, the TGI in the assay on IGROV1 ovarian was more than 100 µM; in the assay on T-47D breast it was 65.6 µM; with HS 578T breast, more than 100 µM; with NCI-H23 lung, more than 100 µM.

On to `Fc1ccc(-c2ncn(C3CCNCC3)c2-c2ccnc(Oc3ccc(F)c(F)c3)n2)cc1`, for which the GI50 is 4.8 µM in the assay on M14 melanoma; 6.44 µM in the assay with MDA-MB-435; 8.61 µM in the assay on IGROV1 ovarian; 4.7 µM in the assay with T-47D breast; 9.58 µM in the assay with HS 578T breast; more than 17.8 µM with NCI-H23 lung. In addition, the TGI in the assay with M14 melanoma was 8.97 µM; with MDA-MB-435, more than 15.5 µM; in the assay with IGROV1 ovarian, more than 22.6 µM; in the assay with T-47D breast it was 10.2 µM; with HS 578T breast it was more than 18.4 µM; with NCI-H23 lung it was more than 25 µM.

With `Cc1nc([C@H]2CC[C@H]3[C@@H]4CCC5=CC(=O)CC[C@]5(C)[C@H]4CC[C@]23C)cs1`, the GI50 is 15.9 µM with M14 melanoma; 5.02 µM in the assay on MDA-MB-435; more than 40.3 µM with IGROV1 ovarian; 1.83 µM in the assay with T-47D breast; more than 66.1 µM with HS 578T breast; 2.58 µM in the assay with NCI-H23 lung. Also, the TGI in the assay on M14 melanoma, with MDA-MB-435, in the assay with IGROV1 ovarian, in the assay with T-47D breast, with HS 578T breast and in the assay with NCI-H23 lung was more than 100 µM in each case.

As for `O=C(O)c1ccc(S(=O)(=O)Nc2ccc3oc4c(c3c2)C(=O)CCC4)cc1`, the GI50 in the assay on M14 melanoma, in the assay with MDA-MB-435, in the assay with IGROV1 ovarian, in the assay with T-47D breast, with HS 578T breast and in the assay with NCI-H23 lung was more than 100 µM in each case. In addition, the TGI in the assay with M14 melanoma, in the assay with MDA-MB-435, in the assay with IGROV1 ovarian, in the assay on T-47D breast, in the assay with HS 578T breast and in the assay on NCI-H23 lung was more than 100 µM throughout.

Turning to `CC(=O)N1c2ccccc2NC2=C(C(=O)N(Cc3ccccc3)C2(C)C)C1c1ccco1` (stereo unspecified), the GI50 with M14 melanoma is 0.748 µM; in the assay on MDA-MB-435, 0.277 µM; in the assay on IGROV1 ovarian it was 0.893 µM; with T-47D breast, 4.88 µM; in the assay with HS 578T breast, 0.976 µM; in the assay with NCI-H23 lung, 0.494 µM. In addition, the TGI in the assay on M14 melanoma was 5.31 µM; in the assay with MDA-MB-435, 0.859 µM; in the assay with IGROV1 ovarian, more than 25 µM; in the assay with T-47D breast, more than 25 µM; in the assay with HS 578T breast, more than 21.9 µM; in the assay on NCI-H23 lung it was more than 25 µM.

For the compound `CN(C)C/C=C/C(=O)Nc1cc2c(Nc3ccc(F)c(Cl)c3F)ncnc2cc1OCCOC(F)F`, the GI50 in the assay on M14 melanoma is 1.87 µM; in the assay with MDA-MB-435 it was 1.17 µM; with IGROV1 ovarian, less than 0.01 µM; with T-47D breast, less than 0.0127 µM; with HS 578T breast it was 0.764 µM; in the assay on NCI-H23 lung, 1.23 µM. Also, the TGI in the assay with M14 melanoma was found to be 6.2 µM; in the assay on MDA-MB-435, 6.63 µM; with IGROV1 ovarian it was 0.39 µM; in the assay on T-47D breast, 0.458 µM; with HS 578T breast, 6.19 µM; in the assay with NCI-H23 lung, 3.82 µM.

In the case of `Cc1cc2cn3c4ccc(O)cc4[nH]c(=O)c3c2cc1C`, the TGI with MDA-MB-435 turned out to be 0.0121 µM. In the assay on NCI-H23 lung, the GI50 was 0.0744 µM and the TGI stood at 1.4 µM.

Turning to `O=c1c(O)cccc2cc(O)c(O)c(O)c12`, the GI50 was 30.6 µM in the assay with M14 melanoma; 3.82 µM with MDA-MB-435; 5.06 µM in the assay with IGROV1 ovarian; more than 100 µM in the assay on T-47D breast; 5.42 µM in the assay with HS 578T breast; 8.89 µM in the assay with NCI-H23 lung. The TGI was more than 100 µM with M14 melanoma; more than 100 µM with MDA-MB-435; 27 µM in the assay on IGROV1 ovarian; more than 100 µM with T-47D breast; more than 100 µM in the assay on HS 578T breast; more than 100 µM in the assay with NCI-H23 lung.

Consider `Clc1ccc(C2=Nn3c(nnc3-c3cc(Cl)cc(Cl)c3Cl)SC2)cc1`, for which the GI50 was 29 µM in the assay with M14 melanoma; 2.79 µM in the assay with MDA-MB-435; 6.8 µM with IGROV1 ovarian; more than 100 µM with T-47D breast; 16.5 µM with HS 578T breast; 22.1 µM in the assay on NCI-H23 lung. Moreover, the TGI in the assay with M14 melanoma is more than 100 µM; with MDA-MB-435, 11.4 µM; in the assay with IGROV1 ovarian, 24.7 µM; with T-47D breast, more than 100 µM; with HS 578T breast, 71.3 µM; in the assay with NCI-H23 lung, 78.8 µM.

For `Cc1nccc2c3ccc(OCc4cn(-c5ccc(Cl)cc5)nn4)cc3n(CCCc3ccccc3)c12`, the GI50 with M14 melanoma was 0.616 µM; in the assay with MDA-MB-435 it was 2 µM; with IGROV1 ovarian, 6.93 µM; in the assay on T-47D breast, 20.6 µM; with HS 578T breast, 0.844 µM; with NCI-H23 lung, 19.7 µM. In addition, the TGI in the assay with M14 melanoma is 1.26 µM; in the assay on MDA-MB-435, more than 33.3 µM; in the assay with IGROV1 ovarian, more than 33.3 µM; with T-47D breast, more than 33.3 µM; with HS 578T breast, 2.48 µM; in the assay with NCI-H23 lung it was more than 33.3 µM.

In the case of `Cc1cc(Nc2c3ccccc3nc3ccccc23)ccc1NS(C)(=O)=O`, the GI50 was 3.69 µM in the assay on M14 melanoma; 4.26 µM in the assay with MDA-MB-435; 3.07 µM with IGROV1 ovarian; 5.51 µM with T-47D breast; 2.45 µM in the assay with HS 578T breast. The TGI was found to be 14.1 µM with M14 melanoma; 25.4 µM in the assay with MDA-MB-435; 11 µM in the assay with IGROV1 ovarian; 24.5 µM in the assay on T-47D breast; 11.7 µM in the assay with HS 578T breast.

Turning to `CN1CCN(c2cc(C(=O)Nc3cc4cc(-c5cnn(C)c5)ccc4cn3)ccn2)CC1`, the GI50 in the assay on M14 melanoma is 0.22 µM; with MDA-MB-435 it was 0.169 µM; in the assay on IGROV1 ovarian, 0.0581 µM; in the assay on T-47D breast, 0.0769 µM; with HS 578T breast, 0.276 µM; with NCI-H23 lung it was 0.111 µM. Further, the TGI with M14 melanoma came out at 13.3 µM; in the assay on MDA-MB-435, 13.2 µM; in the assay with IGROV1 ovarian, 3.3 µM; in the assay with T-47D breast, 10.5 µM; with HS 578T breast, 6.18 µM; in the assay on NCI-H23 lung it was 3.29 µM.

As to `COc1ccc(-c2nc(C(=O)c3ccccc3)n(CC(=O)c3ccccc3)c2-c2ccc(OC)cc2)cc1`, the GI50 with M14 melanoma, in the assay on MDA-MB-435, with IGROV1 ovarian, in the assay with T-47D breast, with HS 578T breast and in the assay with NCI-H23 lung was more than 100 µM in each case. Besides, the TGI in the assay on M14 melanoma, in the assay with MDA-MB-435, in the assay on IGROV1 ovarian, in the assay with T-47D breast, in the assay on HS 578T breast and with NCI-H23 lung was more than 100 µM in each case.

Take `CCCCCCCCCCCCCCCC[N+](C)(CCO)Cc1cnc[nH]1` (stereo unspecified): the GI50 with M14 melanoma was 0.598 µM; in the assay with MDA-MB-435 it was 1.44 µM; in the assay on T-47D breast it was 2.8 µM; in the assay with HS 578T breast, 2.85 µM; with NCI-H23 lung, 0.858 µM. The TGI with M14 melanoma was 2.22 µM; in the assay with MDA-MB-435, 3.81 µM; with T-47D breast it was 28.1 µM; with HS 578T breast it was 35.9 µM; in the assay on NCI-H23 lung it was 5.3 µM.

Turning to `COC(=O)NC1(NC(=O)OC)NC(=O)c2cc(OC)c(OC)c(OC)c2N1`, the TGI was more than 100 µM in the assay with M14 melanoma; more than 100 µM with IGROV1 ovarian; more than 100 µM in the assay with T-47D breast; 67.7 µM in the assay with HS 578T breast; more than 100 µM with NCI-H23 lung.

`COc1ccc(/C=C2\CC(C)CC3C2=NN(C(C)=O)C3c2ccc(OC)cc2)cc1` (stereo unspecified): the GI50 was 19.9 µM in the assay with MDA-MB-435; 31.6 µM in the assay on IGROV1 ovarian; 25.7 µM in the assay with T-47D breast; 22.1 µM in the assay with HS 578T breast; 19.6 µM in the assay on NCI-H23 lung. In addition, the TGI was 49.1 µM with MDA-MB-435; more than 100 µM in the assay with IGROV1 ovarian; more than 100 µM in the assay with T-47D breast; 60.6 µM in the assay on HS 578T breast; 45.2 µM with NCI-H23 lung.

Regarding `Cc1ccc(C(=O)Nc2ccc(S(=O)(=O)O)c3cc(S(=O)(=O)O)cc(S(=O)(=O)O)c23)cc1NC(=S)Nc1cc(C(=O)Nc2ccc(S(=O)(=O)O)c3cc(S(=O)(=O)O)cc(S(=O)(=O)O)c23)ccc1C`, the TGI with M14 melanoma, in the assay with MDA-MB-435, in the assay on IGROV1 ovarian and in the assay on NCI-H23 lung was more than 75 µM in each case.

For `OC(COc1ccc(F)cc1)Cn1cnc2c(Cl)ncnc21` (stereo unspecified), the GI50 in the assay with MDA-MB-435 was 41.6 µM; in the assay on IGROV1 ovarian it was 47.4 µM; in the assay on T-47D breast, more than 100 µM; in the assay on HS 578T breast, 37.9 µM. For the same compound, the TGI in the assay on MDA-MB-435, in the assay with IGROV1 ovarian, with T-47D breast and in the assay with HS 578T breast was more than 100 µM throughout.

As for `COC(=O)Nc1nc2ccc(C(=O)c3ccc(N(C)C4COC4)cc3)cc2[nH]1`, the GI50 in the assay on M14 melanoma was 0.279 µM; in the assay on IGROV1 ovarian, 0.905 µM; with HS 578T breast it was 0.358 µM; in the assay with NCI-H23 lung, 0.713 µM. In addition, the TGI with M14 melanoma, in the assay on IGROV1 ovarian, in the assay on HS 578T breast and in the assay with NCI-H23 lung was more than 100 µM each time.
